This passage reports IC50 results from patent US20260200920A1, “SUBSTITUTED AMINOPYRIDINE COMPOUNDS FOR USE AS AKT1 INHIBITORS” (Atavistik Bio, Inc., priority 2023, published 2026).

As usually defined, the IC50 is the concentration that inhibits the measured activity by half.

Experiment [1] deals with T1, human recombinant kinase full-length AKT1 E17K (Homo sapiens, UniProt P31749, E17K).
T1 construct: Purified human recombinant kinase full-length AKT1 E17K was expressed in insect cells; made in house; host or cells: insect cells
Description: AKT1 E17K kinase assay (TR-FRET, Lance). Type of experiment: biochemical. The following applies: 0.6 nM AKT1 E17K, 50 nM Ulight-CREBtide, either 50 μM ATP or 2 mM ATP, 60 min at RT. The gist of the method: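 IC50 came from a 10-point, 4-parameter fit of the 665/620 TR-FRET ratio read with Eu-anti-phospho-CREB (Ser133). Reaction at RT for 60 min after 15 min compound preincubation, using 0.6 nM PDPK1-activated full-length AKT1 E17K (insect-cell), 50 nM Ulight-CREBtide, ATP at 50 μM or 2 mM, HEPES pH 7.5, 1% DMSO.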
A general note: Time-resolved FRET reads energy transfer from a long-lived donor to a nearby acceptor.

In experiment [2] the target is T2, human recombinant kinase full-length wildtype AKT1 (Homo sapiens, UniProt P31749).
T2 construct: Purified human recombinant kinase full-length wildtype AKT1 was expressed in insect cells; made in house; host or cells: insect cells
Kind of experiment: AKT1 kinase assay (wildtype, TR-FRET, Lance). The format is biochemical. The following applies: 0.6 nM wildtype AKT1, 50 nM Ulight-CREBtide, either 50 μM ATP or 2 mM ATP, 60 min at RT. The method in brief:
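TR-FRET 665/620 ratio quantified phospho-CREBtide formed by PDPK1-activated full-length human AKT1 (0.6 nM, insect-cell-derived) over 60 min at RT with 50 nM ULight-CREBtide and either 50 μM or 2 mM ATP. Compounds were preincubated 15 min with enzyme; IC50 came from 4-parameter fits of 10-point duplicates.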

Molecules are shown by their SMILES.

T2 sequence (P31749 whole entry): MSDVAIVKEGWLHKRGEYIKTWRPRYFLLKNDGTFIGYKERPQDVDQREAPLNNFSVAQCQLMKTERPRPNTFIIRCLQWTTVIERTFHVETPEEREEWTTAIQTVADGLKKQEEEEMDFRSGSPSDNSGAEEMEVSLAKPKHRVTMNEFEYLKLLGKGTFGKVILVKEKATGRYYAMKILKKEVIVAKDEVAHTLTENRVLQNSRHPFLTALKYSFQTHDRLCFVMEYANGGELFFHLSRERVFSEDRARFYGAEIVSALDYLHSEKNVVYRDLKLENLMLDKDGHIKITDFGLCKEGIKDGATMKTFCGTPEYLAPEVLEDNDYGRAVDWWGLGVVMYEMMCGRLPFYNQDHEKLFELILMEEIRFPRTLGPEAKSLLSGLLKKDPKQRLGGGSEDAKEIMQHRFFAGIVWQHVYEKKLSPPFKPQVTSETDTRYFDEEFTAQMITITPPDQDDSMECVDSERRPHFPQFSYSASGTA
T1 sequence (P31749 whole entry E17K): as the sequence (P31749 whole entry) above, with E17K counted along it

Take `Nc1ncccc1-c1nc2ccc(-c3ccccc3)nc2n1-c1ccc(CN2CCC(C(=O)O)CC2)cc1` [Compound I-29, 1-(4-(2-(2-aminopyridin-3-yl)-5-phenyl-3H-imidazo[4,5-b]pyridin-3-yl)benzyl)piperidine-4-carboxylic acid]: the results for the IC50 in experiment [1] and in experiment [2] were 500 to 2000 nM and less than 20000 nM, respectively.
Consider `Cc1cc2nc(-c3cccnc3N)n(-c3ccc(C4CN(C[C@H]5CC[C@H](C(=O)O)CC5)C4)cc3)c2nc1-c1ccccc1` [Compound I-235, trans-4-((3-(4-(2-(2-aminopyridin-3-yl)-6-methyl-5-phenyl-3H-imidazo[4,5-b]pyridin-3-yl)phenyl)azetidin-1-yl)methyl)cyclohexane-1-carboxylic acid], for which the IC50 was less than 500 nM in experiment [1] and less than 20000 nM in experiment [2].
With `Cc1nc(NC(=O)C2CC3(CC(C(=O)O)C3)C2)ccc1-n1c(-c2cccnc2N)nc2ccc(-c3ccccc3)nc21` (stereo not shown) [Compound I-125, 6-((5-(2-(2-aminopyridin-3-yl)-5-phenyl-3H-imidazo[4,5-b]pyridin-3-yl)-6-methylpyridin-2-yl)carbamoyl)spiro[3.3]heptane-2-carboxylic acid], the IC50 in experiment [1] is less than 500 nM; in experiment [2] it was less than 20000 nM.
For `Nc1ncccc1-c1nc2ccc(-c3ccccc3)nc2n1-c1ccc(N[C@H]2CC[C@@H](C(=O)O)CC2)nc1` (single isomer, unassigned) [Compound I-15, (1s,4s)-4-((5-(2-(2-aminopyridin-3-yl)-5-phenyl-3H-imidazo[4,5-b]pyridin-3-yl)pyridin-2-yl)amino)cyclohexane-1-carboxylic acid], the values for the IC50 in experiment [1] and in experiment [2] were no less than 2000 nM and less than 20000 nM, respectively.
`Nc1ncccc1-c1nc2ccc(-c3ccccc3)nc2n1-c1ccc([C@@H]2CCN(C[C@H]3CC[C@H](C(=O)O)CC3)C2)cc1` (single isomer, unassigned) [Compound I-233]: the figures for the IC50 in experiment [1] and in experiment [2] were less than 500 nM and less than 20000 nM, respectively.
`CC(C)(NC1CCC(C(=O)O)CC1)c1ccc(-n2c(-c3cccnc3N)nc3ccc(-c4ccccc4)nc32)cc1` (stereo not shown) [Compound I-89, (1r,4r)-4-((2-(4-(2-(2-aminopyridin-3-yl)-5-phenyl-3H-imidazo[4,5-b]pyridin-3-yl)phenyl)propan-2-yl)amino)cyclohexane-1-carboxylic acid]: the concentration for half-maximal inhibition (IC50) in experiment [1] is no less than 2000 nM; in experiment [2] it was less than 20000 nM.
For the molecule `CC(C(=O)O)C1CCN(Cc2ccc(-n3c(-c4cccnc4N)nc4ccc(-c5ccccc5)nc43)cc2)C1` (stereo not shown) [Compound I-104, 2-[1-[[4-[2-(2-amino-3-pyridyl)-5-phenyl-imidazo[4,5-b]pyridin-3-yl]phenyl]methyl]pyrrolidin-3-yl]propanoic acid], the IC50 in experiment [1] is 500 to 2000 nM; in experiment [2] it was less than 20000 nM.
With `CC1(C)C[C@H](CN2CCC(c3ccc(-n4c(-c5cccnc5N)nc5ccc(-c6ccccc6)nc54)cc3)CC2)CC(C)(C)[C@H]1C(=O)O` [Compound I-196], the IC50 in experiment [1] is no less than 2000 nM; in experiment [2], less than 20000 nM.
As for `Nc1ncccc1-c1nc2ccc(-c3ccccc3)nc2n1-c1ccc(C2CCN(C[C@H]3CC[C@H](C(=O)O)CC3)CC2)cc1` [Compound I-190], the IC50 is 500 to 2000 nM in experiment [1] and less than 20000 nM in experiment [2].
In the case of `Nc1ncccc1-c1nc2ccc(-c3ccccc3)nc2n1-c1ccc(NC(=O)C2CC3(CC(C(=O)O)C3)C2)c(F)c1` (stereo not shown) [Compound I-47, 6-((4-(2-(2-aminopyridin-3-yl)-5-phenyl-3H-imidazo[4,5-b]pyridin-3-yl)-2-fluorophenyl)carbamoyl)spiro[3.3]heptane-2-carboxylic acid], the IC50 in experiment [1] was less than 500 nM; in experiment [2] it was less than 20000 nM.
For the molecule `Nc1ncccc1-c1nc2ccc(-c3ccccc3)nc2n1-c1ccc(NC(=O)N2CCC(C(=O)O)CC2)c(F)c1` [Compound I-106, 1-[[4-[2-(2-amino-3-pyridyl)-5-phenyl-imidazo[4,5-b]pyridin-3-yl]-2-fluoro-phenyl]carbamoyl]piperidine-4-carboxylic acid], the IC50 was 500 to 2000 nM in experiment [1] and less than 20000 nM in experiment [2].
